# Patent publication US5684127A, “Tetrapeptides deriving from dalbaheptide antibiotics” (Gruppo Lepetit SpA, priority 1995, dated 1997)
# Assays:
# Test in all cases: in vitro antibacterial activity, MIC in microtiter
# [1] = tested on: S. aurens Smith (L 819); type: cell-based; conditions: Iso-Sensitest broth, 0.01% bovine serum albumin, 37° C. 18-24 hours
# Procedure: The in vitro antibacterial activity of the compounds is determined by means of standard […] tests in microtiter. Iso-Sensitest broth (Oxoid) is used for all bacteria except streptococci (Todd-[…] broth, Difco) and enterococci (Mueller-Hinton, Difco). Broth cultures are diluted so that the final inoculum is about 5×10^5 cfu/ml (colony forming units per ml).
# [2] = tested on: E. faecalis clin. isol. (L 502); type: cell-based, Enterococcus faecalis; conditions: Mueller-Hinton, 0.01% bovine serum albumin, 37° C. 18-24 hours
# Procedure: (§1) The in vitro antibacterial activity of the compounds is determined by means of standard […] tests in microtiter. Iso-Sensitest broth (Oxoid) is used for all bacteria except streptococci (Todd-Wewitt broth, Difco) and enterococci (Mueller-Hinton, Difco). Broth cultures are diluted so that the final inoculum is about 5×10^5 cfu/ml (colony forming units per ml). All broth microdilution MICs are performed in the presence of 0.01% bovine serum albumin (Pentax fraction V, Sigma).
# [3] = tested on: S. aureus clin. isol. (L 561); type: cell-based; conditions: Iso-Sensitest broth, 0.01% bovine serum albumin, 37° C. 18-24 hours
# Procedure: as §1
# [4] = tested on: S. epidermidis clin. isol. (L 533); type: cell-based; conditions: Iso-Sensitest broth, 0.01% bovine serum albumin, 37° C. 18-24 hours
# Procedure: as §1
# [5] = tested on: S. epidermidis ATCC 12,228 (L 147); type: cell-based; conditions: Iso-Sensitest broth, 0.01% bovine serum albumin, 37° C. 18-24 hours
# Procedure: as §1
# [6] = tested on: Enterococcus faecalis ATCC 7,080 (L 149); type: cell-based; conditions: Mueller-Hinton, 0.01% bovine serum albumin, 37° C. 18-24 hours
# Procedure: as §1
# [7] = tested on: S. haemolyticus clin, isol. (L 602); type: cell-based; conditions: Iso-Sensitest broth, 0.01% bovine serum albumin, 37° C. 18-24 hours
# Procedure: as §1
# [8] = tested on: Staph. aureus Tour (L 165); type: cell-based; conditions: Iso-Sensitest broth, 0.01% bovine serum albumin, 37° C. 18-24 hours
# Procedure: as §1
# [9] = tested on: Strep. pneumoniae UC41 (L 44); type: cell-based; conditions: Todd-Wewitt broth, 0.01% bovine serum albumin, 37° C. 18-24 hours
# Procedure: as §1
# [10] = tested on: Strep. pyogenes C203 (L 49); type: cell-based; conditions: Todd-Wewitt broth, 0.01% bovine serum albumin, 37° C. 18-24 hours
# Procedure: as §1
Molecule,MIC [1] [mg/L],MIC [2] [mg/L],MIC [3] [mg/L],MIC [4] [mg/L],MIC [5] [mg/L],MIC [6] [mg/L],MIC [7] [mg/L],MIC [8] [mg/L],MIC [9] [mg/L],MIC [10] [mg/L]
(L-phenylalanyl)^3 -(D-lysyl)^15 -aglucoteicoplanin dalbaheptide methyl ester,0.13,16,0.06,0.13,0.13,0.5,0.5,0.13,0.13,0.25
N[C@H]1C(=O)N[C@@H]2Cc3ccc(c(Cl)c3)Oc3cc4cc(c3O)Oc3ccc(cc3Cl)[C@@H](O)[C@@H]3NC(=O)[C@H](NC(=O)[C@@H]4NC(=O)[C@@H](NC2=O)c2cc(O)cc(c2)Oc2cc1ccc2O)c1ccc(O)c(c1)-c1c(O)cc(O)cc1[C@@H](C(=O)O)NC3=O [teicoplanin aglycon],0.06,,0.13,0.016,0.06,0.13,0.25,0.13,0.13,0.13
teicoplanin,0.25,,8,8,8,0.13,32,0.13,0.13,0.13
